Experimental data as given in patent publication US20020095695A1, “Tillering promoter for plant and method for tillering promotion of plant” (AJINOMOTO CO., INC., priority 2000, published 2002).

Columns and labels:
Format in all cases: in vivo
[1] = test system: grass (a European grass: bent grass); assay: Effects of proline, glutamine, arginine and urea on hydroponic cultivation of grass; settings: for Average leaf length / Average root length / Number of leaves per one root / Number of tillering per one root / Total weight of living plants per five roots / number of leaves and total weight of the living plant, in words: 40th day; for Average leaf length / Average root length / Number of leaves per one root / Number of tillering per one root / Total weight of living plants per five roots: 5 roots per group, proline 20 ppm, others at the same nitrogen amount; for number of leaves and total weight of the living plant, in words: five average stocks per group
Procedure: Seedlings of grass (a European grass: bent grass) were raised and divided into five groups of A to E, and hydroponic cultivation was carried out (Table 2 shown below). Group A was the control. Concerning Group B, proline was applied onto leaf surfaces once a week in an amount of 20 ppm.
(§1) Furthermore, five average stocks which had not been withered were sampled from each group and examined.

[2] = test system: lawn grass (a European grass; bent grass); assay: Effect of proline on hydroponic cultivation of lawn grass (1); settings: for Average leaf length / Average root length / Number of leaves per one root / Number of tillering per one root / Total weight of living plants per five roots: 5 roots per group, inosine 2 ppm in hydroponic medium, proline 20 ppm onto leaf surfaces once a week; for tillering promotion (observation): confirmation on the 40th day, inosine 2 ppm in medium, proline 20 ppm foliar once a week
Procedure: Seedlings of grass (a European grass; bent grass) were raised and divided into four groups of A to D, and hydroponic cultivation was carried out (Table 1 shown below). Concerning Groups B and D, inosine was added to each hydroponic medium in such amount that the concentration became 2 ppm. Concerning Groups C and D, proline was applied onto leaf surfaces once a week in an amount of 20 ppm. Group A was the control. […] Furthermore, five average stocks which had not been withered were sampled from each group and examined.

[3] = test system: grass (a European grass: bent grass); assay: Effect of proline on hydroponic cultivation of grass (2), proline concentration changed stepwise; settings: 40th day
Procedure: Seedlings of grass (a European grass: bent grass) were raised and divided into six groups of A to F, and hydroponic cultivation was carried out (Table 3 shown below). At that time, inosine was added to the hydroponic media for all the groups in such amount that the concentration became 2 ppm in each hydroponic medium. Group A was the control. In the groups of B to F, proline was applied onto leaf surfaces once a week with the concentration being changed stepwise.
as §1

[4] = group B, 2 ppm, inosine 2 ppm in hydroponic medium of all groups, foliar once a week
[5] = 0.2% proline foliar once a week, inosine 2 ppm in hydroponic medium
[6] = 2.0% proline foliar once a week, inosine 2 ppm in hydroponic medium
[7] = 20 ppm proline foliar once a week, inosine 2 ppm in hydroponic medium
[8] = 200 ppm proline foliar once a week, inosine 2 ppm in hydroponic medium

SMILES: N=C(N)NCCC[C@H](N)C(=O)O [Arginine, arginine]
- Average leaf length ([1]; foliar once a week): 18 cm
- Average root length ([1]; foliar once a week): 2 cm
- Number of leaves per one root ([1]; foliar once a week): 9
- Number of tillering per one root ([1]; foliar once a week): 3
- Total weight of living plants per five roots ([1]; foliar once a week): 0.51 g
- number of leaves and total weight of the living plant, in words [1]: good results

SMILES: NC(=O)CC[C@H](N)C(=O)O [Glutamine, glutamine]
- Average leaf length ([1]; foliar once a week): 18 cm
- Average root length ([1]; foliar once a week): 2 cm
- Number of leaves per one root ([1]; foliar once a week): 11
- Number of tillering per one root ([1]; foliar once a week): 3
- Total weight of living plants per five roots ([1]; foliar once a week): 0.66 g
- number of leaves and total weight of the living plant, in words [1]: good results

SMILES: OC[C@H]1O[C@@H](n2cnc3c(O)ncnc32)[C@H](O)[C@@H]1O [Inosine, inosine]
- Average leaf length ([2]; 40th day): 20 cm
- Average root length ([2]; 40th day): 2 cm
- Number of leaves per one root ([2]; 40th day): 7
- Number of tillering per one root ([2]; 40th day): 2
- Total weight of living plants per five roots ([2]; 40th day): 0.40 g
- tillering promotion (observation) [2]: no tillering promotion was observed
- Average leaf length [3, 4]: 24 cm
- Average root length [3, 4]: 4 cm
- Number of leaves per one root [3, 4]: 14
- Number of tillering per one root [3, 4]: 3
- Total weight of living plants per five roots [3, 4]: 1.04 g

SMILES: O=C(O)[C@@H]1CCCN1 [Proline, proline]
- Average leaf length ([2]; 40th day): 22 cm
- Average root length ([2]; 40th day): 1 cm
- Number of leaves per one root ([2]; 40th day): 16
- Number of tillering per one root ([2]; 40th day): 5
- Total weight of living plants per five roots ([2]; 40th day): 0.53 g
- growth (root length, leaf length and number, total weight of the living plant, tillering number), in words ([2]; 40th day, five average stocks per group): good growth
- tillering promotion (observation) [2]: tillering promotion was clearly observed
- Average leaf length ([1]; foliar once a week): 14 cm
- Average root length ([1]; foliar once a week): 2 cm
- Number of leaves per one root ([1]; foliar once a week): 17
- Number of tillering per one root ([1]; foliar once a week): 5
- Total weight of living plants per five roots ([1]; foliar once a week): 0.60 g
- number of leaves and total weight of the living plant, in words [1]: good results
- Average leaf length [3, 5]: 23 cm
- Average root length [3, 5]: 5 cm
- Number of leaves per one root [3, 5]: 14
- Number of tillering per one root [3, 5]: 3
- Total weight of living plants per five roots [3, 5]: 0.90 g
- Average leaf length [3, 6]: 19 cm
- Average root length [3, 6]: 3 cm
- Number of leaves per one root [3, 6]: 11
- Number of tillering per one root [3, 6]: 3
- Total weight of living plants per five roots [3, 6]: 0.40 g
- Average leaf length [3, 7]: 24 cm
- Average root length [3, 7]: 4 cm
- Number of leaves per one root [3, 7]: 15
- Number of tillering per one root [3, 7]: 4
- Total weight of living plants per five roots [3, 7]: 0.95 g
- Average leaf length [3, 8]: 24 cm
- Average root length [3, 8]: 5 cm
- Number of leaves per one root [3, 8]: 24
- Number of tillering per one root [3, 8]: 4
- Total weight of living plants per five roots [3, 8]: 1.01 g
- inhibition of the growth or withering (observation) ([3]; Group F (2.0% proline foliar once a week), inosine 2 ppm in medium): inhibition of the growth or withering was observed
- number of leaves and total weight of the living plant, in words ([3]; proline at a concentration of 2 ppm to 0.2%, inosine 2 ppm in medium): good results

SMILES: NC(N)=O [Urea, urea, reference compound]
- Average leaf length ([1]; foliar once a week): 15 cm
- Average root length ([1]; foliar once a week): 2 cm
- Number of leaves per one root ([1]; foliar once a week): 6
- Number of tillering per one root ([1]; foliar once a week): 1
- Total weight of living plants per five roots ([1]; foliar once a week): 0.34 g
- tillering promotion (observation) ([1]; confirmation on the 40th day, foliar once a week, nitrogen amount equal to 20 ppm proline): no tillering promotion was observed
